According to patent US10435405B2, “Pyrazolopyridine compounds and uses thereof” (Incyte Corporation, priority 2016, dated 2019):

Biological target: HPK1 (Homo sapiens (Human), UniProt Q92918)
Assay: HPK1 Kinase Binding Assay
Outline: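 Active HPK1 (added as 4 nM solution) was combined with compound (3-fold, 11-point series) and tracer 222 (18 nM) plus Eu-anti-GST antibody (4 nM) in 50 mM HEPES pH 7.5 with MgCl2 and DTT. After 1 h at 25 °C plates were read. Ki values were derived.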

HPK1, sequence (Q92918 1-346): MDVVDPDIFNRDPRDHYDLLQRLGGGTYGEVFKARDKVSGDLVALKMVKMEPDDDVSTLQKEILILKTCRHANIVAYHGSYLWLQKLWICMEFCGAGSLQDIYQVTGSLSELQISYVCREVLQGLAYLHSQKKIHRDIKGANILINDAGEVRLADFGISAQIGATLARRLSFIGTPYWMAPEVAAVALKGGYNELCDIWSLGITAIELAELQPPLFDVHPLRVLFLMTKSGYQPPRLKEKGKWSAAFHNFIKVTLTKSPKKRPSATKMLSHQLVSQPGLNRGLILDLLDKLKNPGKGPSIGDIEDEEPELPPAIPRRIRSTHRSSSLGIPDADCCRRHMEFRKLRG

Ki, ≤ 100 nM:
CN1CCN(c2ccc(-c3n[nH]c4cnc(-c5c(Cl)cccc5C(F)(F)F)cc34)cc2)CC1 [Example 50, 5-(2-Chloro-6-(trifluoromethyl)phenyl)-3-(4-(4-methylpiperazin-1-yl)phenyl)-1H-pyrazolo[3,4-c]pyridine]
Cc1c(CN2CCC2)ccc(F)c1-c1cc2c(-c3cnn(C)c3)n[nH]c2cn1 [Example 94, 5-(3-(Azetidin-1-ylmethyl)-6-fluoro-2-methylphenyl)-3-(1-methyl-1H-pyrazol-4-yl)-1H-pyrazolo[3,4-c]pyridine]
COc1cccc(F)c1-c1cc2c(NC(=O)c3cc(F)cc(F)c3)n[nH]c2cn1 [Example 11, 3,5-Difluoro-N-(5-(2-fluoro-6-methoxyphenyl)-1H-pyrazolo[3,4-c]pyridin-3-yl)benzamide]
CNCc1cc(F)c(-c2cc3c(-c4ccc(N5CCC(F)C5)cn4)n[nH]c3cn2)c(F)c1 (stereo not drawn) [Example 167, 1-(3,5-Difluoro-4-(3-(5-(3-fluoropyrrolidin-1-yl)pyridin-2-yl)-1H-pyrazolo[3,4-c]pyridin-5-yl)phenyl)-N-methylmethanamine]
CC(C)NCc1cc(F)c(-c2cc3c(NC(=O)c4ccc(F)c(N5CCN(C)CC5)c4)n[nH]c3cn2)c(F)c1 [Example 151, N-(5-(2,6-Difluoro-4-((isopropylamino)methyl)phenyl)-1H-pyrazolo[3,4-c]pyridin-3-yl)-4-fluoro-3-(4-methylpiperazin-1-yl)benzamide]
CNCc1cc(F)c(-c2cc3c(-c4cnn(-c5ccccc5C#N)c4)n[nH]c3cn2)c(F)c1 [Example 161, 2-(4-(5-(2,6-Difluoro-4-((methylamino)methyl)phenyl)-1H-pyrazolo[3,4-c]pyridin-3-yl)-1H-pyrazol-1-yl)benzonitrile]
Cc1cc(NC(=O)CN2CCCC2)cc(F)c1-c1cc2c(-c3cnn(C)c3)n[nH]c2cn1 [Example 80, N-(3-Fluoro-5-methyl-4-(3-(1-methyl-1H-pyrazol-4-yl)-1H-pyrazolo[3,4-c]pyridin-5-yl)phenyl)-2-(pyrrolidin-1-yl)acetamide]
Cc1cc(NC(=O)CN(C)C)cc(F)c1-c1cc2c(-c3cnn(C)c3)n[nH]c2cn1 [Example 81, 2-(Dimethylamino)-N-(3-fluoro-5-methyl-4-(3-(1-methyl-1H-pyrazol-4-yl)-1H-pyrazolo[3,4-c]pyridin-5-yl)phenyl)acetamide]
CNCc1cc(C)c(-c2cc3c(-c4ccc(N5CCCC(OC)C5)nc4)n[nH]c3cn2)c(F)c1 (stereo not drawn) [Example 114, 1-(3-Fluoro-4-(3-(6-(3-methoxypiperidin-1-yl)pyridin-3-yl)-1H-pyrazolo[3,4-c]pyridin-5-yl)-5-methylphenyl)-N-methylmethanamine]
CNCc1cc(C)c(-c2cc3c(-c4cnn(C5CC5)c4)n[nH]c3cn2)c(F)c1 [Example 134, 1-(4-(3-(1-Cyclopropyl-1H-pyrazol-4-yl)-1H-pyrazolo[3,4-c]pyridin-5-yl)-3-fluoro-5-methylphenyl)-N-methylmethanamine]
CNCc1ccc(F)c(-c2cc3c(-c4cnn(C)c4)n[nH]c3cn2)c1OC [Example 138, 1-(4-Fluoro-2-methoxy-3-(3-(1-methyl-1H-pyrazol-4-yl)-1H-pyrazolo[3,4-c]pyridin-5-yl)phenyl)-N-methylmethanamine]
CCN1CCN(c2ccc(C(=O)Nc3n[nH]c4cnc(-c5c(F)cccc5OC)cc34)cc2)CC1 [Example 28, 4-(4-Ethylpiperazin-1-yl)-N-(5-(2-fluoro-6-methoxyphenyl)-1H-pyrazolo[3,4-c]pyridin-3-yl)benzamide]
